Test results as given in patent publication US8772500B2, “TRPV3 modulators” (AbbVie Inc., priority 2011, dated 2014).

Legend:
[1] = In vitro rat microsomal stability assay; format: in vitro ADME, rat (Sprague-Dawley); details: Sprague-Dawley, rat, 0.5 h, 0.5 μM, pH 7.4
Procedure, shortened: (§1)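 Stability readout reflects compound turnover by hepatic microsomes from Sprague-Dawley rats or from humans, according to the assay. Reactions at 37 °C contained NADPH, which was present in the zero-time plates as well.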

[2] = In vitro human microsomal stability assay; format: in vitro ADME; details: human, 0.5 h, 0.5 μM, pH 7.4
Procedure, shortened: as §1

human TRPV3 = biological target: T1, human TRPV3 (Homo sapiens, UniProt Q8NET8); assay: In vitro antagonism of recombinant human TRPV3 activation (FLIPR Tetra calcium assay, 2-APB as agonist); format: cell-based; details: HEK293 cells stably expressing human TRPV3; 2-APB 80 μM; range class; read-out: IC50 (reported range)
T1 construct: expressed in transfected cells
T1 sequence (Q8NET8 1-790): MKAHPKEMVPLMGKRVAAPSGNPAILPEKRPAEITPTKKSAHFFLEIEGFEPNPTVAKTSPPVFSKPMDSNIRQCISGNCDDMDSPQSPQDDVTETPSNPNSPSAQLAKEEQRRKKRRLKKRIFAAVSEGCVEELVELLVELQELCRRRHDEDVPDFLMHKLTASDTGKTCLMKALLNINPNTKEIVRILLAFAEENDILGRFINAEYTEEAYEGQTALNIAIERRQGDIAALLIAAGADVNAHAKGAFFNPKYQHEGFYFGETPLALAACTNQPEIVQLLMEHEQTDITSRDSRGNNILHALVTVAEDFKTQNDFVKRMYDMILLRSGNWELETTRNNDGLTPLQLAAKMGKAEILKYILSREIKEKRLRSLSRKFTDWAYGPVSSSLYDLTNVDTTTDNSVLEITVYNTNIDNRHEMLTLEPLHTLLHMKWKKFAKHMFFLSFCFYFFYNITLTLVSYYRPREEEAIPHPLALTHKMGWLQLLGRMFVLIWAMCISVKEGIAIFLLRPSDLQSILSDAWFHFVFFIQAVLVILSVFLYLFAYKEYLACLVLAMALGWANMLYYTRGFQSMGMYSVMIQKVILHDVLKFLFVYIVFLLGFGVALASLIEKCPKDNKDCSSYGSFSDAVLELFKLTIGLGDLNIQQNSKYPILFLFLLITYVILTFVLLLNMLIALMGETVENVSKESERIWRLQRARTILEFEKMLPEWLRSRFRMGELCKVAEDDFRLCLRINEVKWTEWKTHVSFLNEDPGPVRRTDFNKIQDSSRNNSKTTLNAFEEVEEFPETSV
Procedure, shortened: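 Readout is FLIPR fluorescence, max minus min as percent of uninhibited 2-APB response, giving IC50 (usually mean of ≥2 runs). Stable human TRPV3 HEK293 cells, Calcium-4 dye-loaded, got test compound then, three minutes later, 80 μM 2-APB (EC80); run length 10 min.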

Compound | RAT MICROSOMAL STABILITY (% REMAINING AFTER 30 MINUTES) [1] [%] | HUMAN MICROSOMAL STABILITY (% REMAINING AFTER 30 MINUTES) [2] [%] | IC50 (human TRPV3) [µM]
N[C@H]1CCC[C@H]1[C@@H](O)C1(c2ccc(OC(F)(F)F)cc2)CCC1 [Example 229, (R)-[(1R,2S)-2-aminocyclopentyl]{1-[4-(trifluoromethoxy)phenyl]-cyclobutyl}methanol] | 80 | >85 | 1.1 to 5
O[C@H](c1ccccn1)C1(c2ccc(Cl)c(Cl)c2)CC1 [Example 231, (S)-[1-(3,4-dichlorophenyl)cyclopropyl](pyridin-2-yl)methanol] | 17 | 4.0 | 0.501 to 1
OC(c1ccccn1)C1(c2cccc(C(F)(F)F)n2)CCC1 (stereo not drawn) [Example 234, pyridin-2-yl{1-[6-(trifluoromethyl)pyridin-2-yl]cyclobutyl}methanol] | 23 | 19 | 5.1 to 20
OC(c1ccccn1)C1(c2cccc(OC(F)(F)F)c2)CC2(C1)OCCO2 (stereo not drawn) [Example 235, pyridin-2-yl{2-[3-(trifluoromethoxy)phenyl]-5,8-dioxaspiro[3.4]oct-2-yl}-methanol] | <0.01 | 20 | 1.1 to 5
O=C1CC(c2cccc(OC(F)(F)F)c2)(C(O)c2ccccn2)C1 (stereo not drawn) [Example 237, 3-[hydroxy(pyridin-2-yl)methyl]-3-[3-(trifluoromethoxy)phenyl]-cyclobutanone] | 50 | 51 | 1.1 to 5
O[C@H](c1ccccn1)C1(c2cccc(C(F)(F)F)n2)CCC1 [Example 238, (S)-pyridin-2-yl{1-[6-(trifluoromethyl)pyridin-2-yl]cyclobutyl}methanol] | 21 | 7.1 | 1.1 to 5
O[C@H](c1ccccn1)C1(c2ccnc(C(F)(F)F)c2)CCC1 [Example 240, (S)-pyridin-2-yl{1-[2-(trifluoromethyl)pyridin-4-yl]cyclobutyl}methanol] | 38 | 50 | 0.501 to 1
OC(c1ccccn1)C1(c2cccc(C(F)(F)F)c2)CC2(C1)OCCO2 (stereo not drawn) [Example 242, pyridin-2-yl{2-[3-(trifluoromethyl)phenyl]-5,8-dioxaspiro[3.4]oct-2-yl}-methanol] | <0.01 | 45 | 5.1 to 20
CC1(O)CC(c2cccc(C(F)(F)F)c2)(C(O)c2ccccn2)C1 [Example 244, trans-3-[(S)-hydroxy(pyridin-2-yl)methyl]-1-methyl-3-[3-(trifluoromethyl)-phenyl]cyclobutanol] | 77 | 80 | 1.1 to 5
O=C1CC(c2cccc(C(F)(F)F)c2)(C(O)c2ccccn2)C1 (stereo not drawn) [Example 245, 3-[hydroxy(pyridin-2-yl)methyl]-3-[3-(trifluoromethyl)phenyl]cyclobutanone] | 72 | 57 | 1.1 to 5
OC1CC(c2ccc(Cl)c(Cl)c2)(C(O)c2ccccn2)C1 [Example 247, cis-3-(3,4-dichlorophenyl)-3-[(R)-hydroxy(pyridin-2-yl)methyl]cyclobutanol] | >85 | 62 | 1.1 to 5
ON=C1CC(c2ccc(OC(F)(F)F)cc2)([C@H](O)c2ccccn2)C1 (stereo partly drawn) [Example 248, (S)-{3-(hydroxyimino)-1-[4-(trifluoromethoxy)phenyl]cyclobutyl}(pyridin-2-yl)methanol] | 29 | 70 | 1.1 to 5
CON=C1CC(c2ccc(OC(F)(F)F)cc2)([C@H](O)c2ccccn2)C1 (stereo partly drawn) [Example 249, (S)-{3-(methoxyimino)-1-[4-(trifluoromethoxy)phenyl]cyclobutyl}(pyridin-2-yl)methanol] | 3.2 | 61 | 1.1 to 5
C[C@]1(O)C[C@@](c2ccc(OC(F)(F)F)cc2)([C@@H](O)c2ccccn2)C1 [Example 250, cis-3-[(R)-hydroxy(pyridin-2-yl)methyl]-1-methyl-3-[4-(trifluoromethoxy)-phenyl]cyclobutanol] | 70 | 70 | 5.1 to 20
Cc1ccccc1CC1(C(O)c2ccccn2)CCC1 (stereo not drawn) [Example 253, [1-(2-methylbenzyl)cyclobutyl](pyridin-2-yl)methanol] | 0.017 | 0.21 | 1.1 to 5
OC(c1ccccn1)C1(Cc2cccc(F)c2)CCC1 (stereo not drawn) [Example 254, [1-(3-fluorobenzyl)cyclobutyl](pyridin-2-yl)methanol] | 0.57 | 1.1 | 1.1 to 5
OC(c1ccccn1)C1(c2ccc(F)c(Cl)c2)CC2(C1)OCCO2 (stereo not drawn) [Example 255, [2-(3-chloro-4-fluorophenyl)-5,8-dioxaspiro[3.4]oct-2-yl](pyridin-2-yl)-methanol] | <0.01 | 54 | 5.1 to 20
O=C1CC(c2ccc(F)c(Cl)c2)(C(O)c2ccccn2)C1 (stereo not drawn) [Example 258, 3-(3-chloro-4-fluorophenyl)-3-[hydroxy(pyridin-2-yl)methyl]cyclobutanone] | 53 | 70 | 5.1 to 20
OC(c1ccccn1)C1(C2=CCC(F)(F)CC2)CCC1 (stereo not drawn) [Example 260, [1-(4,4-difluorocyclohex-1-en-1-yl)cyclobutyl](pyridin-2-yl)methanol] | <0.01 | 12 | 5.1 to 20
OC(c1ccccn1)C1(C2=CCCC(C(F)(F)F)C2)CCC1 (stereo not drawn) [Example 261, pyridin-2-yl{1-[5-(trifluoromethyl)cyclohex-1-en-1-yl]cyclobutyl}methanol] | <0.01 | 0.01 | 1.1 to 5
CC(C)(C)OC(=O)N1CCC(C2(C(O)c3ccccn3)CCC2)C1 (stereo not drawn) [Example 265, tert-butyl 3-{1-[hydroxy(pyridin-2-yl)methyl]cyclobutyl}pyrrolidine-1-carboxylate] | 0.059 | 43 | 5.1 to 20
OC(c1ccccn1)C1(c2nc3ccccc3s2)CCC1 (stereo not drawn) [Example 266, [1-(1,3-benzothiazol-2-yl)cyclobutyl](pyridin-2-yl)methanol] | 0.14 | 46 | 1.1 to 5
CN(C)N=C1CC(c2ccc(OC(F)(F)F)cc2)([C@H](O)c2ccccn2)C1 (stereo partly drawn) [Example 267, (S)-{3-(dimethylhydrazinylidene)-1-[4-(trifluoromethoxy)phenyl]-cyclobutyl}(pyridin-2-yl)methanol] | 10 | 64 | 1.1 to 5
OC(c1ccccn1)C1(c2nc3ccccc3o2)CCC1 (stereo not drawn) [Example 271, [1-(1,3-benzoxazol-2-yl)cyclobutyl](pyridin-2-yl)methanol] | 8.6 | 62 | 1.1 to 5
OC1CC(c2cccc(OC(F)(F)F)c2)(C(O)c2ccccn2)C1 [Example 272, cis-3-[(S)-hydroxy(pyridin-2-yl)methyl]-3-[3-(trifluoromethoxy)phenyl]-cyclobutanol] | 48 | 54 | 0.05 to 0.5
OC1CC(c2cccc(OC(F)(F)F)c2)(C(O)c2ccccn2)C1 [Example 273, trans-3-[(S)-hydroxy(pyridin-2-yl)methyl]-3-[3-(trifluoromethoxy)phenyl]-cyclobutanol] | 65 | 42 | 0.05 to 0.5
